System: 755483-174-R-J1-PDC complex spheroid growth, percent test/control
Assay: Anticancer human tumor 755483-174-R-J1-PDC patient-derived rhabdomyosarcoma cell line growth inhibition [Asc]
Settings: for IC50: curve of first compound; for viability, T/C: stronger effect = lower value
Summary of the method: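 Tumor cells were grown as complex spheroids with human endothelial cells (HUVEC) and human mesenchymal stem cells as stroma. Agents were tested alone and in combination, in half-log steps down from the clinical Cmax, or from 10 microM where Cmax was unknown.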

[1] = second compound 0.01 µM, first compound 0.0316 µM
[2] = second compound 0.01 µM, first compound 0.1 µM
[3] = second compound 0.01 µM, first compound 0.316 µM
[4] = second compound 0.01 µM, first compound 1 µM
[5] = second compound 0.01 µM, first compound 3.16 µM
[6] = second compound 0.01 µM, first compound 10 µM
[7] = second compound 0.0316 µM, first compound 0.0316 µM
[8] = second compound 0.0316 µM, first compound 0.1 µM
[9] = second compound 0.0316 µM, first compound 0.316 µM
[10] = second compound 0.0316 µM, first compound 1 µM
[11] = second compound 0.0316 µM, first compound 3.16 µM
[12] = second compound 0.0316 µM, first compound 10 µM
[13] = second compound 0.1 µM, first compound 0.0316 µM
[14] = second compound 0.1 µM, first compound 0.1 µM
[15] = second compound 0.1 µM, first compound 0.316 µM
[16] = second compound 0.1 µM, first compound 1 µM
[17] = second compound 0.1 µM, first compound 3.16 µM
[18] = second compound 0.1 µM, first compound 10 µM
[19] = second compound 0.316 µM, first compound 0.0316 µM
[20] = second compound 0.316 µM, first compound 0.1 µM
[21] = second compound 0.316 µM, first compound 0.316 µM
[22] = second compound 0.316 µM, first compound 1 µM
[23] = second compound 0.316 µM, first compound 3.16 µM
[24] = second compound 0.316 µM, first compound 10 µM
[25] = second compound 1 µM, first compound 0.0316 µM
[26] = second compound 1 µM, first compound 0.1 µM
[27] = second compound 1 µM, first compound 0.316 µM
[28] = second compound 1 µM, first compound 1 µM
[29] = second compound 1 µM, first compound 3.16 µM
[30] = second compound 1 µM, first compound 10 µM
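Further: spheroids exposed to compounds for seven days before readout.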

C#Cc1c(F)ccc2cc(O)cc(-c3ncc4c(N5CC6CCC(C5)N6)nc(OCC56CCCN5CC(F)C6)nc4c3F)c12 (stereo not given) + CNC(C)C(=O)NC1CN(S(=O)(=O)c2cccc(S(=O)(=O)N3CCC4CCC(C(=O)NC(c5ccccc5)c5ccccc5)N4C(=O)C(NC(=O)C(C)NC)C3)c2)CCC2CCC(C(=O)NC(c3ccccc3)c3ccccc3)N2C1=O
IC50 (second compound 0.01 µM): < 31.6 nM
IC50 (second compound 0.0316 µM): < 31.6 nM
IC50 (second compound 0.1 µM): < 31.6 nM
IC50 (second compound 0.316 µM): < 31.6 nM
IC50 (second compound 1 µM): < 31.6 nM
viability, T/C [1]: 46.4%
viability, T/C [2]: 44.1%
viability, T/C [3]: 55.5%
viability, T/C [4]: 54.6%
viability, T/C [5]: 36.6%
viability, T/C [6]: 2.18%
viability, T/C [7]: 33.2%
viability, T/C [8]: 36%
viability, T/C [9]: 38.7%
viability, T/C [10]: 48.3%
viability, T/C [11]: 36.4%
viability, T/C [12]: 2.06%
viability, T/C [13]: 35.9%
viability, T/C [14]: 42.6%
viability, T/C [15]: 54%
viability, T/C [16]: 28.7%
viability, T/C [17]: 24.8%
viability, T/C [18]: 1.01%
viability, T/C [19]: 32.1%
viability, T/C [20]: 33.9%
viability, T/C [21]: 30.9%
viability, T/C [22]: 34.9%
viability, T/C [23]: 13.9%
viability, T/C [24]: 0.34%
viability, T/C [25]: 17.1%
viability, T/C [26]: 31.2%
viability, T/C [27]: 31.7%
viability, T/C [28]: 22.8%
viability, T/C [29]: 10.5%
viability, T/C [30]: 0.34%

C=C(F)C(=O)N1CCN(c2nc(OCC3CCCN3C)nc3c2CCN(c2cccc4cccc(Cl)c24)C3)CC1CC#N (stereo not given) + CNC(C)C(=O)NC1CN(S(=O)(=O)c2cccc(S(=O)(=O)N3CCC4CCC(C(=O)NC(c5ccccc5)c5ccccc5)N4C(=O)C(NC(=O)C(C)NC)C3)c2)CCC2CCC(C(=O)NC(c3ccccc3)c3ccccc3)N2C1=O
IC50 (second compound 0.01 µM): 585 nM
IC50 (second compound 0.0316 µM): 336 nM
IC50 (second compound 0.1 µM): 428 nM
IC50 (second compound 0.316 µM): < 31.6 nM
IC50 (second compound 1 µM): < 31.6 nM
viability, T/C [1]: 68.4%
viability, T/C [2]: 62%
viability, T/C [3]: 58.9%
viability, T/C [4]: 40.6%
viability, T/C [5]: 3.47%
viability, T/C [6]: 0.12%
viability, T/C [7]: 48.5%
viability, T/C [8]: 56.7%
viability, T/C [9]: 50.1%
viability, T/C [10]: 32%
viability, T/C [11]: 2.46%
viability, T/C [12]: 0.12%
viability, T/C [13]: 40%
viability, T/C [14]: 63.9%
viability, T/C [15]: 66.2%
viability, T/C [16]: 31.1%
viability, T/C [17]: 17.1%
viability, T/C [18]: 0.12%
viability, T/C [19]: 26.6%
viability, T/C [20]: 30.6%
viability, T/C [21]: 38.7%
viability, T/C [22]: 23.3%
viability, T/C [23]: 2.01%
viability, T/C [24]: 0.12%
viability, T/C [25]: 29.7%
viability, T/C [26]: 34.6%
viability, T/C [27]: 21.6%
viability, T/C [28]: 13.1%
viability, T/C [29]: 0.83%
viability, T/C [30]: 0.19%

C=CC(=O)N1CCN(c2nc(=O)n(-c3c(C)ccnc3C(C)C)c3nc(-c4c(O)cccc4F)c(F)cc23)C(C)C1 (stereo not given) + CNC(C)C(=O)NC1CN(S(=O)(=O)c2cccc(S(=O)(=O)N3CCC4CCC(C(=O)NC(c5ccccc5)c5ccccc5)N4C(=O)C(NC(=O)C(C)NC)C3)c2)CCC2CCC(C(=O)NC(c3ccccc3)c3ccccc3)N2C1=O
IC50 (second compound 0.01 µM): > 10000 nM
IC50 (second compound 0.0316 µM): > 10000 nM
IC50 (second compound 0.1 µM): 31.6 nM
IC50 (second compound 0.316 µM): < 31.6 nM
IC50 (second compound 1 µM): < 31.6 nM
viability, T/C [1]: 80.2%
viability, T/C [2]: 89.3%
viability, T/C [3]: 75.2%
viability, T/C [4]: 61.4%
viability, T/C [5]: 80.5%
viability, T/C [6]: 63%
viability, T/C [7]: 51.8%
viability, T/C [8]: 77.5%
viability, T/C [9]: 61.4%
viability, T/C [10]: 56.6%
viability, T/C [11]: 75.1%
viability, T/C [12]: 37.7%
viability, T/C [13]: 53.4%
viability, T/C [14]: 54.7%
viability, T/C [15]: 44.6%
viability, T/C [16]: 59.2%
viability, T/C [17]: 69.8%
viability, T/C [18]: 51.1%
viability, T/C [19]: 38.4%
viability, T/C [20]: 36.2%
viability, T/C [21]: 44.4%
viability, T/C [22]: 61.1%
viability, T/C [23]: 46.2%
viability, T/C [24]: 43.9%
viability, T/C [25]: 32.4%
viability, T/C [26]: 28.9%
viability, T/C [27]: 33.6%
viability, T/C [28]: 35.5%
viability, T/C [29]: 39.9%
viability, T/C [30]: 36%

CCN1C(C(=O)NC23CCC(C(=O)O)(CC2)CC3)C(c2cccc(Cl)c2F)C2(C(=O)Nc3cc(Cl)ccc32)C12CCCCC2 (stereo not given) + CNC(C)C(=O)NC1CN(S(=O)(=O)c2cccc(S(=O)(=O)N3CCC4CCC(C(=O)NC(c5ccccc5)c5ccccc5)N4C(=O)C(NC(=O)C(C)NC)C3)c2)CCC2CCC(C(=O)NC(c3ccccc3)c3ccccc3)N2C1=O
IC50 (second compound 0.01 µM): 148 nM
IC50 (second compound 0.0316 µM): < 9.49 nM
IC50 (second compound 0.1 µM): < 9.49 nM
IC50 (second compound 0.316 µM): < 9.49 nM
IC50 (second compound 1 µM): < 9.49 nM
viability, T/C (second compound 0.01 µM, first compound 0.00949 µM): 56.2%
viability, T/C (second compound 0.01 µM, first compound 0.03 µM): 73.9%
viability, T/C (second compound 0.01 µM, first compound 0.0949 µM): 55%
viability, T/C (second compound 0.01 µM, first compound 0.3 µM): 39.3%
viability, T/C (second compound 0.01 µM, first compound 0.949 µM): 48.2%
viability, T/C (second compound 0.01 µM, first compound 3 µM): 38.6%
viability, T/C (second compound 0.0316 µM, first compound 0.00949 µM): 38.6%
viability, T/C (second compound 0.0316 µM, first compound 0.03 µM): 45.8%
viability, T/C (second compound 0.0316 µM, first compound 0.0949 µM): 50%
viability, T/C (second compound 0.0316 µM, first compound 0.3 µM): 49.2%
viability, T/C (second compound 0.0316 µM, first compound 0.949 µM): 44.2%
viability, T/C (second compound 0.0316 µM, first compound 3 µM): 28.9%
viability, T/C (second compound 0.1 µM, first compound 0.00949 µM): 27.9%
viability, T/C (second compound 0.1 µM, first compound 0.03 µM): 23.6%
viability, T/C (second compound 0.1 µM, first compound 0.0949 µM): 39.4%
viability, T/C (second compound 0.1 µM, first compound 0.3 µM): 28.9%
viability, T/C (second compound 0.1 µM, first compound 0.949 µM): 32.6%
viability, T/C (second compound 0.1 µM, first compound 3 µM): 24.4%
viability, T/C (second compound 0.316 µM, first compound 0.00949 µM): 19.9%
viability, T/C (second compound 0.316 µM, first compound 0.03 µM): 26.2%
viability, T/C (second compound 0.316 µM, first compound 0.0949 µM): 40%
viability, T/C (second compound 0.316 µM, first compound 0.3 µM): 37.9%
viability, T/C (second compound 0.316 µM, first compound 0.949 µM): 23.5%
viability, T/C (second compound 0.316 µM, first compound 3 µM): 27%
viability, T/C (second compound 1 µM, first compound 0.00949 µM): 23.5%
viability, T/C (second compound 1 µM, first compound 0.03 µM): 23.1%
viability, T/C (second compound 1 µM, first compound 0.0949 µM): 18.1%
viability, T/C (second compound 1 µM, first compound 0.3 µM): 23.1%
viability, T/C (second compound 1 µM, first compound 0.949 µM): 21.5%
viability, T/C (second compound 1 µM, first compound 3 µM): 34.4%

— PubChem BioAssay AID1963434 (Molecular Pharmacology Branch, DTP, NCI, 2024)
